Series [1] has as its system HCT-15 (P glycoprotein (P-gp) expressing human colon cancer cell line). Description: Anti-cell activity (MTT) against human tumor cell line HCT-15. Type of series: cell-based. To be noted: 72 h, HCT-15 (P-gp expressing), cultured three days, read-out: HCT-15 (GI50 value, ng/mL). As for the experimental part:
(§1) Three types of human tumor cell lines (all of the cells were obtained from American Type Culture Collection) were seeded on 96-well microplates as follows.
(§2) NCI-H460 (human lung cancer cell line): 5.0×10^2 cells/190 μL/well HCT-15 (P glycoprotein (P-gp) expressing human colon cancer cell line, J. Natl. Cancer Inst., 2001, 93:1234-1245): 1.0×10^3 cells/190 μL/well HCT116 (human colon cancer cell line): 1.0×10^3 cells/190 μL/well On the next day, each test compound was dissolved in 100% dimethyl sulfoxide (DMSO) at a concentration of 10 mg/mL. This solution was diluted with 0.01% Cremophor EL-PBS(−) (Cremophor EL: Sigma Chemical Co., St. Louis, Mo., USA, PBS: Invitrogen Corp., Carlsbad, Calif., USA), and 10 μL of the diluted solution was added to each well (final concentration: 100 to 0.000381 ng/mL). The cells were cultured for three days, and then […] of a 5 mg/mL solution of 3-(4,5-dimethylthiazol-2-yl)-2,5-diphenyl-2H-tetrazolium bromide (MTT, Sigma Chemical Co.) was added to each well. The cells were further cultured for 4 hours, and then the medium was removed by centrifugation. By adding 150 μL of DMSO to each well, the produced formazan product was dissolved. The absorbance of the solution was measured at 540 nm. The drug concentration suppressing cell proliferation of the drug addition group to 50% of the cell proliferation of the drug free group (GI50 value, ng/mL) was calculated, and used as an index of anti-cell activity.

Series [2] in a line: Solubility in first and second solution for disintegration test (Japanese Pharmacopoeia). Type of series: physicochemical. To be noted: thermodynamic from solid.
For the next series, the system named is B16 melanoma BL6. Description: Antitumor effect in mice subcutaneously transplanted with B16 melanoma BL6. It counts as in vivo, Mice (C57BL/6). To be noted: B16 Melanoma BL6, po; MTD/MED.
In series [3] the test system is HCT116 (human colon cancer cell line). Description: Anti-cell activity (MTT) against human tumor cell line HCT116. Type of series: cell-based. To be noted: HCT-116, 72 h, HCT116, cultured three days, read-out: HCT116 (GI50 value, ng/mL). As for the experimental part: as §1, §2
Series [4] relates to M5076 (histiocytoma expressing P-gp). Description: Antitumor effect in mice subcutaneously transplanted with M5076. It counts as in vivo, Mice (C57BL/6). The conditions noted are these: M5076, po; for Therapeutic index: MTD/MED; for Effective dose range: range from MED to MTD, antitumor effect of 58% or more considered effective. From the text:
Mice (C57BL/6, Charles River Japan) were subcutaneously transplanted with B16 melanoma BL6 (Cancer Res., Poste, G., Fidler, I. J. et al., 1980, 40:1636; Bioorg. Med. Chem. Lett., Takeda, Y. et al., 2003, 13:185-190), or M5076 (obtained from Japanese Foundation for Cancer Research), which is a histiocytoma expressing P-gp. Four days after the transplantation in the case of B16 melanoma BL6, or 8 to 10 days after the transplantation in the case of M5076, each test compound suspended in a 0.5% aqueous solution of carboxymethylcellulose sodium, or dissolved in EtOH:Tween 80:5% glucose=5:5:90 (v/v %) was orally (po) or intravenously (iv) administered to the mice. Ten days after the administration in the case of B16 melanoma BL6, or 8 to 10 days after the administration in the case of M5076, the mice were dissected, and tumor weights were measured. The antitumor effect was calculated in accordance with the following equation.
[1−(Average tumor weight of compound administration group/average tumor weight of solvent administration group)]×100
An antitumor effect of 58% or more was considered effective (Int. J. Cancer, 1989, 43:637-44), and the maximum tolerance dose (MTD, maximum dose not causing death, mg/kg) and minimum effective dose (MED, mg/kg) showing effectiveness were obtained, respectively. The therapeutic index was calculated in accordance with the equation: MTD/MED.
ND means that the test was not performed. The effective dose range means the range of from MED to MTD.

Series [5] concerns NCI-H460 (human lung cancer cell line). Description: Anti-cell activity (MTT) against human tumor cell line NCI-H460. It counts as cell-based. The conditions noted are these: 72 h, NCI-H460, cultured three days, read-out: NCI-H460 (GI50 value, ng/mL). Here is the method: as §1, §2
[6] abbreviates: aqueous buffer, second solution for disintegration test, pH 6.8, room temperature, 12 hours or longer, read-out: Solubility (μg/mL) pH 6.8.
The mark [7] stands for this setting: simulated gastric fluid, first solution for disintegration test, pH 1.2, room temperature, 12 hours or longer, read-out: Solubility (μg/mL) pH 1.2.

Molecules are shown by their SMILES. Converted amounts (≈) assume the structure as drawn. Read-outs that look alike come from different tables or passages of the source.

`CC(=O)O[C@@]12CO[C@@H]1CC[C@@]1(C)[C@@H]3O[C@H](CN4CC(O)C4)O[C@@H]3C3=C(C)[C@@H](OC(=O)[C@H](O)[C@@H](NC(=O)OC(C)(C)C)c4ccccn4)C[C@@](O)([C@@H](OC(=O)c4ccccc4)[C@@H]12)C3(C)C` [Example 5, (1S,2S,3R,4S,5R,8R,9S,10R,13S)-4-(Acetoxy)-2-(benzoyloxy)-5,20-epoxy-1-hydroxy-9,10-[(1S)-2-(3-hydroxyazetidino)ethylidenedioxy]tax-11-en-13-yl (2R,3S)-3-(tert-butoxycarbonylamino)-2-hydroxy-3-(2-pyridyl)propionate]: the GI50 came to 8.08 ng/mL (≈ 0.00906 µM) in series [1], 0.229 ng/mL (≈ 0.000257 µM) in series [3] and 0.162 ng/mL (≈ 0.000182 µM) in series [5]. Further, the solubility in series [2] (setting [6]) is 140 µg/mL (≈ 157 µM); in series [2] (setting [7]) it was 1000 µg/mL (≈ 1120 µM). In addition, the Therapeutic index is 6.0 in the series on B16 melanoma BL6 and 1.0 in series [4]. The “Effective dose range” value in series [4] came to 30.0 mg/kg.

Regarding `CC(=O)O[C@@]12CO[C@@H]1CC[C@@]1(C)[C@@H]3O[C@H](CN4CC(O)C4)O[C@@H]3C3=C(C)[C@@H](OC(=O)[C@H](O)[C@@H](NC(=O)OC(C)(C)C)c4ncccc4F)C[C@@](O)([C@@H](OC(=O)c4ccccc4)[C@@H]12)C3(C)C` [Example 6, (1S,2S,3R,4S,5R,8R,9S,10R,13S)-4-(Acetoxy)-2-(benzoyloxy)-5,20-epoxy-1-hydroxy-9,10-[(1S)-2-(3-hydroxyazetidino)ethylidenedioxy]tax-11-en-13-yl (2R,3S)-3-(tert-butoxycarbonylamino)-3-(3-fluoro-2-pyridyl)-2-hydroxypropionate], the GI50 was determined as 7.94 ng/mL (≈ 0.00873 µM) in series [1], 0.183 ng/mL (≈ 0.000201 µM) in series [3] and 0.172 ng/mL (≈ 0.000189 µM) in series [5]. In addition, the solubility in series [2] (pH 1.2, simulated gastric fluid) was 690 µg/mL (≈ 758 µM); in series [2] (pH 6.8, aqueous buffer), 87 µg/mL (≈ 95.6 µM). The Therapeutic index in the series with B16 melanoma BL6 worked out at 4.2; in series [4], 2.0. Also, the “Effective dose range” value in series [4] lay within 18.6 to 38.0 mg/kg.

Consider `COC1CN(C[C@@H]2O[C@@H]3C4=C(C)[C@@H](OC(=O)[C@H](O)[C@@H](NC(=O)OC(C)(C)C)c5ncccc5F)C[C@@](O)([C@@H](OC(=O)c5ccccc5)[C@H]5[C@@](C)(CC[C@H]6OC[C@]65OC(C)=O)[C@@H]3O2)C4(C)C)C1` [Example 8, (1S,2S,3R,4S,5R,8R,9S,10R,13S)-4-(Acetoxy)-2-(benzoyloxy)-5,20-epoxy-1-hydroxy-9,10-[(1S)-2-(3-methoxyazetidino)ethylidenedioxy]tax-11-en-13-yl (2R,3S)-3-(tert-butoxycarbonylamino)-3-(3-fluoro-2-pyridyl)-2-hydroxypropionate], for which the GI50 is 0.236 ng/mL (≈ 0.000255 µM) in series [1], 0.155 ng/mL (≈ 0.000168 µM) in series [3] and 0.128 ng/mL (≈ 0.000139 µM) in series [5]. Moreover, the results for the solubility in series [2] (setting [6]) and in series [2] (setting [7]) were 10 µg/mL (≈ 10.8 µM) and 600 µg/mL (≈ 649 µM), respectively. Moreover, the values for the Therapeutic index (in the series on B16 melanoma BL6; in series [4]) were 2.9 and 1.4, respectively. Further, the “Effective dose range” value in series [4] was 21.0 to 30.0 mg/kg.

The values are drawn from US20090186868A1, “Taxane Compound Having Azetidine Ring Structure” (Daiichi Sankyo Company Limited, priority 2005, published 2009).
